Test systems include SK-OV-3; COLO 205; MOLT-4; SF-295; SF-268; SW-620; SK-MEL-5; KM12; SF-539; T47D; A549; OVCAR-4; MDA-MB-231; NCI-H226; A498; HOP-92; RPMI-8226; PC-3; OVCAR-3.
Common to all, as to assay: NCI-60 cell line screen, 48 h

Consider twelve compounds from ChEMBL document CHEMBL1201862, “PubChem BioAssay data set” (2004).

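The compound was tested at five concentrations on cells cultured in 96-well plates, with a 48-hour exposure period. GI50: concentration for 50% inhibition of growth.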 Active and inactive are the calls of the source. Rule as the data show it: active = GI50 up to about 1.1 µM and inactive = higher.

As for `COc1cc(Oc2c(C)c(Cl)c(OC)c(Cl)c2OC)c2c(c1Cl)COC2=O`, the GI50 with SK-OV-3 was 41.5 µM (inactive); with COLO 205, 20.9 µM (inactive); in the test with MOLT-4, 10 µM (inactive); in the test with SF-295 it was 15.6 µM (inactive); with SF-268 it was 21.8 µM (inactive); in the test with SW-620, 52 µM (inactive). The GI50 is 12.2 µM (inactive) in the test on SK-MEL-5; 20.9 µM (inactive) with KM12; 31.5 µM (inactive) with SF-539; 9.73 µM (inactive) in the test with T47D; 34.4 µM (inactive) in the test with A549; 10.8 µM (inactive) in the test with OVCAR-4. The GI50 in the test on MDA-MB-231 is 24.2 µM (inactive); in the test with NCI-H226, 27.9 µM (inactive); with A498, 49.7 µM (inactive); in the test with HOP-92, 54 µM (inactive); in the test with RPMI-8226, 3.52 µM (inactive).
With `Cc1cccc(NC2=NCCO2)c1Cl`, the GI50 in the test with SK-OV-3, in the test on COLO 205, with MOLT-4, in the test with SF-295, in the test on SF-268 and with SW-620 was > 100 µM (inactive) throughout. The GI50 with SK-MEL-5, in the test with KM12, with SF-539, in the test with T47D, with A549 and in the test with OVCAR-4 was > 100 µM (inactive) in each case. Further, the GI50 is > 100 µM (inactive) in the test with MDA-MB-231; > 100 µM (inactive) in the test with NCI-H226; > 100 µM (inactive) with A498; 32.7 µM (inactive) in the test with HOP-92; > 100 µM (inactive) in the test on RPMI-8226.
For the compound `Cc1ccc2c(=O)c(-c3nnsn3)c[nH]c2n1`, the GI50 in the test on COLO 205, in the test on MOLT-4, in the test with SF-295, with PC-3, with SF-268 and with SW-620 was > 100 µM (inactive) in each case. In addition, the GI50 in the test on SK-MEL-5, in the test with KM12, in the test with T47D, with OVCAR-3, in the test on A549 and with OVCAR-4 was > 100 µM (inactive) each time. The GI50 in the test on MDA-MB-231, in the test on NCI-H226, with A498 and in the test with RPMI-8226 was > 100 µM (inactive) in each case.
For `CCOc1nc2c(N3CCCC3)nc(N3CCNCC3)nc2nc1NCc1ccccc1`, the GI50 in the test with SK-OV-3 is 1.57 µM (inactive); with COLO 205, 0.574 µM (active); in the test with MOLT-4 it was 1.09 µM (active); in the test on SF-295, 1.76 µM (inactive); in the test with PC-3, 1.46 µM (inactive); in the test on SF-268 it was 1.56 µM (inactive). Further, the GI50 with SW-620 was 1.73 µM (inactive); in the test on SK-MEL-5 it was 1.41 µM (inactive); in the test on KM12, 1.34 µM (inactive); with SF-539, 1.52 µM (inactive); with T47D, 1.46 µM (inactive); with OVCAR-3 it was 0.887 µM (active). Also, the GI50 was 1.74 µM (inactive) in the test with A549; 2.42 µM (inactive) with OVCAR-4; 1.45 µM (inactive) in the test with MDA-MB-231; 1.65 µM (inactive) in the test on NCI-H226; 1.13 µM (inactive) in the test on HOP-92; 1.39 µM (inactive) in the test with RPMI-8226.
Consider `CN(/N=C/c1cccs1)c1ccc(Cl)cc1[N+](=O)[O-]`, for which the GI50 is 40.8 µM (inactive) in the test with SK-OV-3; > 10 µM (inactive) with COLO 205; 17.1 µM (inactive) in the test on MOLT-4; 37.7 µM (inactive) in the test with SF-295; 38.4 µM (inactive) in the test with PC-3; 83.4 µM (inactive) with SF-268. The GI50 is 12.3 µM (inactive) with SW-620; 36.9 µM (inactive) in the test on SK-MEL-5; 11.4 µM (inactive) in the test with KM12; 25 µM (inactive) with SF-539; 41.6 µM (inactive) in the test with T47D; 39.8 µM (inactive) with OVCAR-3. For the same compound, the GI50 with A549 was 30.3 µM (inactive); with OVCAR-4, 59.3 µM (inactive); with MDA-MB-231, 14.2 µM (inactive); in the test with NCI-H226 it was 19.8 µM (inactive); in the test on RPMI-8226 it was 22 µM (inactive).
As to `CN1CC(c2ccccc2)=CC2=C1C=CC(=N)/C2=N\N`, the GI50 is > 100 µM (inactive) with SK-OV-3; > 100 µM (inactive) with MOLT-4; 75.3 µM (inactive) with SF-295; > 100 µM (inactive) in the test on PC-3; > 100 µM (inactive) with SF-268; > 100 µM (inactive) in the test on SW-620. Further, the GI50 in the test on SK-MEL-5, with KM12, in the test with SF-539, in the test on T47D, with OVCAR-3 and with A549 was > 100 µM (inactive) in each case. The GI50 in the test on OVCAR-4 was > 100 µM (inactive); in the test with MDA-MB-231, > 100 µM (inactive); in the test on NCI-H226 it was 6.65 µM (inactive); in the test with RPMI-8226 it was > 100 µM (inactive).
Regarding `COc1ccc(/C=C2\CN(C)Cc3c2nc(O)c(C#N)c3-c2ccc(OC)cc2)cc1`, the GI50 was 38.1 µM (inactive) in the test with SK-OV-3; 66.1 µM (inactive) in the test on COLO 205; 42 µM (inactive) with MOLT-4; 38.3 µM (inactive) in the test with SF-295; 44.4 µM (inactive) with PC-3; 26.7 µM (inactive) with SF-268. The GI50 with SW-620 was > 100 µM (inactive); in the test with SK-MEL-5 it was > 100 µM (inactive); in the test on KM12, 32.6 µM (inactive); with T47D, 80.4 µM (inactive); in the test on OVCAR-3, 54.1 µM (inactive); with A549, 44.6 µM (inactive). In addition, the GI50 with OVCAR-4 is 37.1 µM (inactive); in the test with MDA-MB-231, > 100 µM (inactive); in the test with NCI-H226, > 100 µM (inactive); with HOP-92 it was 25.2 µM (inactive); with RPMI-8226 it was 21.7 µM (inactive).
`CC(=O)N1C(NN(C)C)CCN1c1ccccc1` (centres undefined): the GI50 with SK-OV-3, with COLO 205, in the test with MOLT-4, in the test on SF-295, in the test with PC-3 and in the test on SF-268 was > 10 µM (inactive) each time. Also, the GI50 in the test on SW-620, in the test on SK-MEL-5, in the test with KM12, in the test on T47D, in the test on A549 and in the test with OVCAR-4 was > 10 µM (inactive) each time. Besides, the GI50 in the test on MDA-MB-231, with HOP-92 and with RPMI-8226 was > 10 µM (inactive) each time.
On to `O=C(O)CCCOc1cc(-c2ccccc2F)nc2cc3c(cc12)OCO3`, for which the GI50 in the test on SK-OV-3 is 6.11 µM (inactive); in the test with COLO 205, 3.47 µM (inactive); in the test with MOLT-4 it was 5.9 µM (inactive); with PC-3 it was 3 µM (inactive); in the test on SW-620, 6.07 µM (inactive); in the test with KM12, 4.19 µM (inactive). Moreover, the GI50 in the test on SF-539 was 3.4 µM (inactive); in the test on T47D it was > 100 µM (inactive); in the test with A549 it was 5.77 µM (inactive); with OVCAR-4 it was 45.9 µM (inactive); in the test with MDA-MB-231, 31.3 µM (inactive); in the test with HOP-92, 13 µM (inactive). Besides, the GI50 with RPMI-8226 is 3.73 µM (inactive).
As for `NC(=O)c1ncn(C2C=CC(CP(=O)(O)O)C2)c1N` (centres undefined), the GI50 with SK-OV-3, with COLO 205, in the test on MOLT-4, in the test on SF-295, in the test on PC-3 and with SF-268 was > 100 µM (inactive) throughout. Further, the GI50 with SW-620, in the test on SK-MEL-5, in the test on KM12, with SF-539, with T47D and with OVCAR-3 was > 100 µM (inactive) each time. Also, the GI50 with A549, in the test on OVCAR-4, in the test on MDA-MB-231, with NCI-H226, in the test with HOP-92 and with RPMI-8226 was > 100 µM (inactive) in each case.
With `Cc1n[n+](CC(=O)c2ccccc2)c2sc(N)nn12`, the GI50 with SK-OV-3, in the test on COLO 205, with MOLT-4, with SF-295, in the test with PC-3 and in the test on SF-268 was > 100 µM (inactive) throughout. In addition, the GI50 with SW-620 was > 100 µM (inactive); in the test with SK-MEL-5, 72.3 µM (inactive); in the test on KM12, > 100 µM (inactive); with T47D it was > 100 µM (inactive); in the test with OVCAR-3, > 100 µM (inactive); in the test with A549, 96.8 µM (inactive). Further, the GI50 in the test with OVCAR-4, with MDA-MB-231, with NCI-H226, in the test with A498 and in the test on RPMI-8226 was > 100 µM (inactive) in each case.
On to `O=C1CCCCCCCCCCC1CN(Cc1ccccc1)Cc1ccccc1` (centres undefined), for which the GI50 in the test on SK-OV-3 was 54 µM (inactive); in the test on COLO 205 it was > 100 µM (inactive); in the test with MOLT-4, 17.3 µM (inactive); with SF-295, 32.6 µM (inactive); with PC-3, 30.9 µM (inactive); in the test on SF-268, 40 µM (inactive). Besides, the GI50 was 45.6 µM (inactive) in the test with SW-620; 13.1 µM (inactive) in the test with SK-MEL-5; 83.9 µM (inactive) in the test on KM12; 45.2 µM (inactive) with SF-539; 19.1 µM (inactive) in the test with T47D; 44.5 µM (inactive) with OVCAR-3. Also, the GI50 in the test with A549 was 40.7 µM (inactive); in the test on OVCAR-4 it was > 100 µM (inactive); with MDA-MB-231, 77.6 µM (inactive); with NCI-H226 it was 51.3 µM (inactive); in the test with HOP-92, 78.2 µM (inactive); with RPMI-8226 it was 22.2 µM (inactive).
